# Results as given in patent US10328094B2, “Compound from the avermectin family for treating and/or preventing folliculitis” (GALDERMA SA, priority 2015, dated 2019).
# “Also recorded” adds a separate entry of the source.
# Experiments:
# [1] = system: primary human keratinocytes; experiment: CXCL14 and CCL5 protein concentration by ELISA assay in primary human keratinocytes; assay type: cell-based
# Description: Another objective of the present study was to identify the effect of ivermectin on the CXCL14 and CCL5 protein level of
# (§1) To do this, primary human keratinocytes were cultured with various concentrations of EGFR inhibitor (in this case erlotinib) each with +/− TNF-α/IL-1β, various concentrations of ivermectin alone each with +/− TNF-α/IL-1β various concentrations of erlotinib and of ivermectin each with +/− TNF-α/IL-1β. The addition of the pro-inflammatory cytokines TNFα and IL1β makes it possible to mimic the skin inflammation.
# (§2) The various concentrations used were the following: • Erlotinib: 0-0.1 μM-1 μM-10 μM (each with +/− TNF-α/IL-1β) • Ivermectin: 0-0.1 μM-1 μM-10 μM (each with +/− TNF-α/IL-1β) • Co-stimulation: • Erlotinib (0.1 μM)+Ivermectin (1 μM) (+/− TNF-α/IL-1β) • Erlotinib (0.1 μM)+Ivermectin (5 μM) (+/− TNF-α/IL-1β) • Erlotinib (1 μM)+Ivermectin (1 μM)+/− TNF-α/IL-1β) • Erlotinib (1 μM)+Ivermectin (5 μM) (+/− TNF-α/IL-1β)
# (§3) The expression of the CXCL14, CCL5 (chemokines), RNase 7, HBD3 and LL37 (antimicrobial peptides) genes was analyzed by quantitative PCR. The protein concentration of the chemokines CXCL14 and CCL5 was quantified using an ELISA assay.
# [2] = system: primary human keratinocytes; experiment: Gene expression by quantitative PCR in primary human keratinocytes treated with erlotinib and/or ivermectin +/- TNF-α/IL-1β; assay type: cell-based
# Description: A study was carried out on primary human keratinocytes in vitro, in order to determine the effect of ivermectin on the regulation of genes of which the expression has been identified as being modulated by EGFR inhibitors. Said genes identified are the pro-inflammatory chemokines CCL2, CCL5, CCL27 and CXCL14 and the cytokines of the IL-1β family, but also the genes of antimicrobial peptides RNase7, HBD3 and LL37.
# as §1, §2, §3
# [3] = erlotinib and TNFα/IL1β, without ivermectin
# [4] = erlotinib without ivermectin, listed as erlitonib
# [5] = ivermectin in combination with erlotinib, +/- TNFα/IL1β
SMILES,"CCL5 protein concentration (ELISA) [1, 3]","CXCL14 protein concentration (ELISA) [1, 3]","expression of CCL5 (gene, quantitative PCR) ([2]; erlotinib without ivermectin)","expression of CXCL14 (gene, quantitative PCR) ([2]; erlotinib without ivermectin)","expression of HBD3 (gene, quantitative PCR) ([2]; erlotinib without ivermectin)","expression of RNase 7 (gene, quantitative PCR) ([2]; erlotinib without ivermectin)","expression of CCL5 (gene, quantitative PCR) [2, 4]","expression of CXCL14 (gene, quantitative PCR) [2, 4]",CXCL14 protein level (ELISA) ([1]; ivermectin in combination with erlotinib and TNFα/IL1β),"expression of CCL5 (gene, quantitative PCR) [2, 5]","expression of CXCL14 (gene, quantitative PCR) [2, 5]","expression of HBD3 (gene, quantitative PCR) [2, 5]","expression of RNase 7 (gene, quantitative PCR) ([2]; ivermectin in combination with erlotinib, various concentrations)"
C#Cc1cccc(Nc2ncnc3cc(OCCOC)c(OCCOC)cc23)c1 [erlotinib],increase,increase,induction,induction,decreased,greatly decreased,overexpression,overexpression,,,,,
CC[C@H](C)[C@H]1O[C@]2(CC[C@@H]1C)C[C@@H]1C[C@@H](C/C=C(\C)[C@@H](O[C@H]3C[C@H](OC)[C@@H](O[C@H]4C[C@H](OC)[C@@H](O)[C@H](C)O4)[C@H](C)O3)[C@@H](C)/C=C/C=C3\CO[C@@H]4[C@H](O)C(C)=C[C@@H](C(=O)O1)[C@]34O)O2 [ivermectin],,,,,,,,,decrease the protein level,significant modification of the induction; also recorded: reduce the overexpression,significant modification of the induction; also recorded: reduce the overexpression,induce the expression,re-establish the expression of RNase 7 greatly decreased in the presence of erlotinib but also to induce a strong expression thereof
